Legend:
Conditions in all cases: sulfur source concentration 200 µM; S. cerevisiae S288C/BY sul1Δ sul2Δ soa1Δ with transporter ortholog inserted at SOA1 locus; sulfur-free B medium, 4% glucose, pH 6.5, sole sulfur source
[1] = test system: Aspergillus nidulans_CBF80346; experiment: maximal growth rate with compound as sole sulfur source (OD600 per h); higher = better growth / uptake of the sulfur source
Description: (§1)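 S. cerevisiae sul1Δ sul2Δ soa1Δ strains expressing 20 fungal SOA1 orthologs (or no transporter, 'soa1 del') were grown in liquid sulfur-free B medium, 4% glucose, pH 6.5 (7 mM K2HPO4). The strains were sulfur-starved for 3 days beforehand. Each sulfur compound was the sole sulfur source at 200 µM (sulfate also at 40 mM). OD600 curves of duplicate cultures were averaged and fitted (logistic / Richards, GroFit) to give maximal growth rate, maximal density and lag phase; temperature not stated.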

soa1 del [2] = experiment: as above
Description: as §1

[3] = test system: Metarhizium robertsii_XP_007822519; experiment: as above
Description: as §1

[4] = test system: Aspergillus nidulans_XP_660563; experiment: as above
Description: as §1

[5] = test system: Ogataea parapolymorpha_XP_013932458; experiment: as above
Description: as §1

[6] = test system: Aspergillus nidulans (IAM 2006)_astA; experiment: as above
Description: as §1

[7] = test system: Fusarium oxysporum_ENH65823; experiment: as above
Description: as §1

[8] = test system: Metarhizium robertsii_XP_007821441; experiment: as above
Description: as §1

[9] = test system: Saccharomyces eubayanus_SOA1; experiment: as above
Description: as §1

[10] = test system: Saccharomyces eubayanus_SOA2; experiment: as above
Description: as §1

[11] = test system: Saccharomyces uvarum_SOA1; experiment: as above
Description: as §1

[12] = test system: Saccharomyces uvarum_SOA2; experiment: as above
Description: as §1

[13] = test system: Aspergillus nidulans_XP_681611; experiment: as above
Description: as §1

[14] = test system: Aspergillus nidulans_CBF74694; experiment: as above
Description: as §1

[15] = test system: Ogataea parapolymorpha_XP_013936897; experiment: as above
Description: as §1

[16] = test system: Ogataea parapolymorpha_XP_013935289; experiment: as above
Description: as §1

[17] = test system: Aspergillus nidulans_XP_661711; experiment: as above
Description: as §1

[18] = test system: Saccharomyces cerevisiae_SOA1; experiment: as above
Description: as §1

[19] = test system: Aspergillus nidulans_XP_661733; experiment: as above
Description: as §1

[20] = test system: Metarhizium robertsii_XP_007823832; experiment: as above
Description: as §1

[21] = test system: Aspergillus nidulans_XP_660670; experiment: as above
Description: as §1

[22] = test system: Aspergillus nidulans_CBF80346; experiment: maximal culture density with compound as sole sulfur source (OD600); higher = better growth
Description: as §1

soa1 del [23] = experiment: as above
Description: as §1

[24] = test system: Metarhizium robertsii_XP_007822519; experiment: as above
Description: as §1

[25] = test system: Aspergillus nidulans_XP_660563; experiment: as above
Description: as §1

[26] = test system: Ogataea parapolymorpha_XP_013932458; experiment: as above
Description: as §1

[27] = test system: Aspergillus nidulans (IAM 2006)_astA; experiment: as above
Description: as §1

[28] = test system: Fusarium oxysporum_ENH65823; experiment: as above
Description: as §1

[29] = test system: Metarhizium robertsii_XP_007821441; experiment: as above
Description: as §1

[30] = test system: Saccharomyces eubayanus_SOA1; experiment: as above
Description: as §1

[31] = test system: Saccharomyces eubayanus_SOA2; experiment: as above
Description: as §1

[32] = test system: Saccharomyces uvarum_SOA1; experiment: as above
Description: as §1

[33] = test system: Saccharomyces uvarum_SOA2; experiment: as above
Description: as §1

[34] = test system: Aspergillus nidulans_XP_681611; experiment: as above
Description: as §1

[35] = test system: Aspergillus nidulans_CBF74694; experiment: as above
Description: as §1

[36] = test system: Ogataea parapolymorpha_XP_013936897; experiment: as above
Description: as §1

[37] = test system: Ogataea parapolymorpha_XP_013935289; experiment: as above
Description: as §1

[38] = test system: Aspergillus nidulans_XP_661711; experiment: as above
Description: as §1

[39] = test system: Saccharomyces cerevisiae_SOA1; experiment: as above
Description: as §1

[40] = test system: Aspergillus nidulans_XP_661733; experiment: as above
Description: as §1

[41] = test system: Metarhizium robertsii_XP_007823832; experiment: as above
Description: as §1

[42] = test system: Aspergillus nidulans_XP_660670; experiment: as above
Description: as §1

[43] = test system: Saccharomyces uvarum_SOA2; experiment: lag phase before growth; higher = slower start of growth
Description: as §1

[44] = test system: Ogataea parapolymorpha_XP_013935289; experiment: as above
Description: as §1

[45] = test system: Saccharomyces cerevisiae_SOA1; experiment: as above
Description: as §1

## NCCS(=O)(=O)O [Taurine]
[1]
  maximal growth rate: 0.00339
soa1 del [2]
  maximal growth rate: 0.00366
[3]
  maximal growth rate: 0.00328
[4]
  maximal growth rate: 0.00581
[5]
  maximal growth rate: 0.00448
[6]
  maximal growth rate: 0.0198
[7]
  maximal growth rate: 0.00349
[8]
  maximal growth rate: 0.0033
[9]
  maximal growth rate: 0.00369
[10]
  maximal growth rate: 0.00328
[11]
  maximal growth rate: 0.00382
[12]
  maximal growth rate: 0.0111
[13]
  maximal growth rate: 0.0063
[14]
  maximal growth rate: 0.00281
[15]
  maximal growth rate: 0.0048
[16]
  maximal growth rate: 0.0523
[17]
  maximal growth rate: 0.0038
[18]
  maximal growth rate: 0.0291
[19]
  maximal growth rate: 0.00417
[20]
  maximal growth rate: 0.0141
[21]
  maximal growth rate: 0.00383
[22]
  maximal culture density: 0.217
soa1 del [23]
  maximal culture density: 0.217
[24]
  maximal culture density: 0.213
[25]
  maximal culture density: 0.311
[26]
  maximal culture density: 0.245
[27]
  maximal culture density: 0.515
[28]
  maximal culture density: 0.195
[29]
  maximal culture density: 0.219
[30]
  maximal culture density: 0.284
[31]
  maximal culture density: 0.258
[32]
  maximal culture density: 0.292
[33]
  maximal culture density: 0.828
[34]
  maximal culture density: 0.305
[35]
  maximal culture density: 0.187
[36]
  maximal culture density: 0.317
[37]
  maximal culture density: 1.6
[38]
  maximal culture density: 0.215
[39]
  maximal culture density: 1.4
[40]
  maximal culture density: 0.228
[41]
  maximal culture density: 0.498
[42]
  maximal culture density: 0.214
[43]
  lag phase before growth: 7.75 h
[44]
  lag phase before growth: 7.77 h
[45]
  lag phase before growth: 9.53 h

## O=S(=O)(O)CCO [Isethionate]
[1]
  maximal growth rate: 0.00382
soa1 del [2]
  maximal growth rate: 0.00355
[3]
  maximal growth rate: 0.0519
[4]
  maximal growth rate: 0.00647
[5]
  maximal growth rate: 0.00421
[6]
  maximal growth rate: 0.0178
[7]
  maximal growth rate: 0.00374
[8]
  maximal growth rate: 0.00324
[9]
  maximal growth rate: 0.0612
[10]
  maximal growth rate: 0.0595
[11]
  maximal growth rate: 0.0659
[12]
  maximal growth rate: 0.0695
[13]
  maximal growth rate: 0.00854
[14]
  maximal growth rate: 0.00301
[15]
  maximal growth rate: 0.0049
[16]
  maximal growth rate: 0.0699
[17]
  maximal growth rate: 0.00367
[18]
  maximal growth rate: 0.0707
[19]
  maximal growth rate: 0.00489
[20]
  maximal growth rate: 0.0144
[21]
  maximal growth rate: 0.00369
[22]
  maximal culture density: 0.213
soa1 del [23]
  maximal culture density: 0.235
[24]
  maximal culture density: 1.59
[25]
  maximal culture density: 0.332
[26]
  maximal culture density: 0.242
[27]
  maximal culture density: 0.489
[28]
  maximal culture density: 0.233
[29]
  maximal culture density: 0.223
[30]
  maximal culture density: 1.58
[31]
  maximal culture density: 1.7
[32]
  maximal culture density: 1.59
[33]
  maximal culture density: 1.71
[34]
  maximal culture density: 0.373
[35]
  maximal culture density: 0.195
[36]
  maximal culture density: 0.289
[37]
  maximal culture density: 1.59
[38]
  maximal culture density: 0.233
[39]
  maximal culture density: 1.61
[40]
  maximal culture density: 0.269
[41]
  maximal culture density: 0.501
[42]
  maximal culture density: 0.232

From the supplement of paper PMC5303821, “Major sulfonate transporter Soa1 in Saccharomyces cerevisiae and considerable substrate diversity in its fungal family” (Nature Communications, 2017)
